Source: ChEMBL document CHEMBL1201862, “PubChem BioAssay data set” (2004)
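Following 48 hours of exposure in 96-well plates, responses at five concentrations were used to interpolate endpoints linearly. Abbreviation: GI50, concentration required for 50% inhibition of growth.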 Calls of active or inactive are those of the source. No stated cut-off is given here; in the data, active = GI50 up to about 1.1 µM and inactive = higher.

Tests used:
Test in all cases: NCI-60 cell line screen, 48 h
SK-OV-3 = system: SK-OV-3
T47D = system: T47D
SF-295 = system: SF-295
RXF 393 = system: RXF 393
SF-539 = system: SF-539
Malme-3M = system: Malme-3M
NCI-H522 = system: NCI-H522
HT-29 = system: HT-29
UO-31 = system: UO-31
U-251 = system: U-251
OVCAR-5 = system: OVCAR-5
SN12C = system: SN12C
A549 = system: A549
NCI/ADR-RES = system: NCI/ADR-RES
LOX IMVI = system: LOX IMVI
Hs-578T = system: Hs-578T
SR = system: SR
BT-549 = system: BT-549
A498 = system: A498
NCI-H23 = system: NCI-H23

Measured: GI50

O=C([O-])Cc1ccccc1.[Na+] [SODIUM PHENYLACETATE]
inactive: SK-OV-3 > 2000 µM | T47D 774 µM | SF-295 843 µM | RXF 393 582 µM | SF-539 > 2000 µM | Malme-3M 706 µM | NCI-H522 618 µM | HT-29 931 µM | UO-31 929 µM | U-251 729 µM | OVCAR-5 > 2000 µM | SN12C 23.9 µM | A549 1410 µM | NCI/ADR-RES 540 µM | LOX IMVI 1160 µM | Hs-578T 385 µM | SR 200 µM | BT-549 723 µM | A498 519 µM | NCI-H23 > 2000 µM

COC(C)(C)[C@@H](O)[C@H]1C[C@H](C)[C@@]2(CC[C@]3(C)[C@@H]2CC[C@@H]2[C@@]4(C)CC[C@@H](OC(C)=O)C(C)(C)[C@@H]4C[C@@H](OC4OC(COC(C)=O)C(O)C(O)C4O)[C@]23C)O1 (stereo not given in full)
inactive: SK-OV-3 4.7 µM | T47D 4.14 µM | SF-295 4.51 µM | RXF 393 4.1 µM | SF-539 10.1 µM | Malme-3M 10.5 µM | NCI-H522 4.04 µM | HT-29 1.89 µM | UO-31 4.67 µM | U-251 5.7 µM | OVCAR-5 2.54 µM | SN12C 6.43 µM | A549 4.01 µM | NCI/ADR-RES 7.43 µM | LOX IMVI 3.9 µM | Hs-578T 6.76 µM | SR 2.52 µM | BT-549 4.86 µM | A498 6.41 µM | NCI-H23 10.2 µM

Nc1c(C(=O)c2ccccc2)[nH]c(NCc2ccccc2)c1C(=S)Nc1ccccc1
inactive: SK-OV-3 > 100 µM | T47D > 100 µM | SF-295 > 100 µM | RXF 393 > 100 µM | SF-539 > 100 µM | Malme-3M > 100 µM | NCI-H522 > 100 µM | HT-29 > 100 µM | UO-31 > 100 µM | U-251 > 100 µM | OVCAR-5 > 100 µM | SN12C > 100 µM | A549 > 100 µM | NCI/ADR-RES > 100 µM | LOX IMVI > 100 µM | Hs-578T > 100 µM | SR > 100 µM | BT-549 > 100 µM | A498 > 100 µM | NCI-H23 > 100 µM

CCCCCCCCCCCCCCCCCCNc1nc(=O)n(C2CC(O)C(COP(=O)(O)OCC3OC(n4ccc(N)nc4=O)C(O)C3O)O2)cc1F (stereo not given)
inactive: SK-OV-3 53.6 µM | T47D 28.7 µM | SF-295 > 100 µM | RXF 393 > 100 µM | SF-539 32.6 µM | Malme-3M 24.5 µM | NCI-H522 3.8 µM | HT-29 13.1 µM | UO-31 24.5 µM | U-251 23.7 µM | OVCAR-5 52.6 µM | SN12C 27 µM | A549 3.25 µM | NCI/ADR-RES 17.9 µM | LOX IMVI 10.2 µM | Hs-578T > 100 µM | SR > 100 µM | BT-549 31.1 µM | A498 17.2 µM | NCI-H23 16 µM

C(CCc1nnc2c(n1)CCCC2)Cc1nnc2c(n1)CCCC2
inactive: SK-OV-3 > 100 µM | T47D > 100 µM | SF-295 > 100 µM | RXF 393 > 100 µM | SF-539 > 100 µM | Malme-3M > 100 µM | NCI-H522 > 100 µM | HT-29 > 100 µM | UO-31 > 100 µM | U-251 > 100 µM | OVCAR-5 > 100 µM | SN12C > 100 µM | A549 > 100 µM | NCI/ADR-RES > 100 µM | LOX IMVI > 100 µM | Hs-578T > 100 µM | SR 88.7 µM | BT-549 > 100 µM | A498 > 100 µM | NCI-H23 > 100 µM
